{"source": "paper PMC4486940", "about": "“Redox Linked Flavin Sites in Extracellular Decaheme Proteins Involved in Microbe-Mineral Electron Transfer” (Scientific Reports, 2015)", "type_in_all_cases": "binding", "key": {"MtrC [1]": {"target": "T1, MtrC (Shewanella oneidensis, UniProt Q8EG34)", "T1 construct": "soluble; pLS146 in S. oneidensis LS329; model residues 45-670", "T1 sequence (Q8EG34 26-671)": "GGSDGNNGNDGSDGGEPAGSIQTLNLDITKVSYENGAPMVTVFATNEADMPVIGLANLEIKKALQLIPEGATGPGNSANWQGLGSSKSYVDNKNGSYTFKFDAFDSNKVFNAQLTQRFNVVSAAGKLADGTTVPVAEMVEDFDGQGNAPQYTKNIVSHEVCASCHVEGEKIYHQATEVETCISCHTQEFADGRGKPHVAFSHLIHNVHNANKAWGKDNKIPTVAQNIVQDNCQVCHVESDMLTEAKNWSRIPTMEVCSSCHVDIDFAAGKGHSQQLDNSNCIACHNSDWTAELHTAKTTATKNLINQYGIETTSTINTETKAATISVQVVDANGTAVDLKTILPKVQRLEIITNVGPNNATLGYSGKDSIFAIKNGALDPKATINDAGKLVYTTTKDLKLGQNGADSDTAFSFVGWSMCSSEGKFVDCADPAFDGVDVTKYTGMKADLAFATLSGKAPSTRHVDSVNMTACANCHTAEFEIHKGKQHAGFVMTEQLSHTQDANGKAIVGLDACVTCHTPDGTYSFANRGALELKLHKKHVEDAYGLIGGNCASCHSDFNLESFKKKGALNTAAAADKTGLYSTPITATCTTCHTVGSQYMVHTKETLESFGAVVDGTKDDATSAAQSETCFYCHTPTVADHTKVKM", "test": "PD10 gel-filtration co-elution, spectroscopy", "details": "anaerobic, reduced glutathione (disulfide reduced), 20 mM HEPES pH 7.6, room temperature"}, "OmcA": {"target": "T2, OmcA (Shewanella oneidensis, UniProt Q8EG33)", "T2 construct": "soluble form, isolated as in earlier work", "T2 sequence (Q8EG33 28-735)": "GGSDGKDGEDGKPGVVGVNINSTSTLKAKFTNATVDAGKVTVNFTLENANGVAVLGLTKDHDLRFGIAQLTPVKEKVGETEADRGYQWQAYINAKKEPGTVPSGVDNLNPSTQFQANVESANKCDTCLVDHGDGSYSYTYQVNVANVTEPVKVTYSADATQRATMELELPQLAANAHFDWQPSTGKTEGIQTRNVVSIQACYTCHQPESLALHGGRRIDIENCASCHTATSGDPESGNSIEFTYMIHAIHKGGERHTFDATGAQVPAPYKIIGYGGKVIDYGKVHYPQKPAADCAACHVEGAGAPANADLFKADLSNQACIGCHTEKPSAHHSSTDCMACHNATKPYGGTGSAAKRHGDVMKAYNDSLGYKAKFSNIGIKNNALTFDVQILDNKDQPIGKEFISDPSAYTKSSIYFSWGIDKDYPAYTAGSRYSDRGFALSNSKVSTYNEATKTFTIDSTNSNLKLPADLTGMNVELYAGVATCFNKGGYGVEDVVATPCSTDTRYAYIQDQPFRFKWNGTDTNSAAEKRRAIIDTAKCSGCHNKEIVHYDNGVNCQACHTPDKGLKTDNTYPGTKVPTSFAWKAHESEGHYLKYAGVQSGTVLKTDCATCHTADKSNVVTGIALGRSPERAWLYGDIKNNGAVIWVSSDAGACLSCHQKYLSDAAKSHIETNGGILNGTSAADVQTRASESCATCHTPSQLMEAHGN", "test": "PD10 gel-filtration co-elution, flavin fluorescence and absorbance", "details": "anaerobic, 1 mM reduced glutathione (disulfide reduced), 10 uM FMN, 20 mM HEPES pH 7.6, room temperature"}, "MtrF": {"target": "T3, MtrF (Shewanella oneidensis, UniProt Q8EG32)", "T3 construct": "detergent-solubilised form, isolated as in earlier work", "T3 sequence (Q8EG32 24-639)": "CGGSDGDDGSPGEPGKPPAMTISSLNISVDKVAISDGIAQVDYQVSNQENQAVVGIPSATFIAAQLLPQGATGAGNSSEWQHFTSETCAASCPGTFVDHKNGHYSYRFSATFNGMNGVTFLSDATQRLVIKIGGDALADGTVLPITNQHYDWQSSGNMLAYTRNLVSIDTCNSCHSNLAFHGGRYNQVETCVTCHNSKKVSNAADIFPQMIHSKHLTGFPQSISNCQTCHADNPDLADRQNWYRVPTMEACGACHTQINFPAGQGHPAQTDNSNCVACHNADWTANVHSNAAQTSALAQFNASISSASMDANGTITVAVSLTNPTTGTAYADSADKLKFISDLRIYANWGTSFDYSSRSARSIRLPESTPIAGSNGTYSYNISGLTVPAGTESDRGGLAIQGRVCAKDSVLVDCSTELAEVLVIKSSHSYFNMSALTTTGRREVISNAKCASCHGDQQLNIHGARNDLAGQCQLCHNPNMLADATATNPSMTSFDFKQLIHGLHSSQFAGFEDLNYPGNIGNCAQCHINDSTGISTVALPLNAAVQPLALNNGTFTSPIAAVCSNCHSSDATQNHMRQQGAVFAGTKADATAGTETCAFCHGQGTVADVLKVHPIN", "test": "PD10 gel-filtration co-elution, flavin fluorescence ([…] nm)", "details": "anaerobic, 1 mM reduced glutathione (disulfide reduced), 10 uM FMN, 20 mM HEPES pH 7.6, room temperature"}, "MtrC [2]": {"target": "T1, MtrC", "test": "PD10 gel-filtration co-elution, flavin fluorescence and absorbance; fluorescence quenching", "details": "anaerobic, 1 mM reduced glutathione (disulfide reduced), 1 uM MtrC, 10 uM FMN, 20 mM HEPES pH 7.6, room temperature"}, "UndA": {"target": "T4, UndA (Shewanella sp. HRCR_06, UniProt F8UWD6)", "T4 construct": "soluble form, isolated as in earlier work", "T4 sequence (F8UWD6 27-843)": "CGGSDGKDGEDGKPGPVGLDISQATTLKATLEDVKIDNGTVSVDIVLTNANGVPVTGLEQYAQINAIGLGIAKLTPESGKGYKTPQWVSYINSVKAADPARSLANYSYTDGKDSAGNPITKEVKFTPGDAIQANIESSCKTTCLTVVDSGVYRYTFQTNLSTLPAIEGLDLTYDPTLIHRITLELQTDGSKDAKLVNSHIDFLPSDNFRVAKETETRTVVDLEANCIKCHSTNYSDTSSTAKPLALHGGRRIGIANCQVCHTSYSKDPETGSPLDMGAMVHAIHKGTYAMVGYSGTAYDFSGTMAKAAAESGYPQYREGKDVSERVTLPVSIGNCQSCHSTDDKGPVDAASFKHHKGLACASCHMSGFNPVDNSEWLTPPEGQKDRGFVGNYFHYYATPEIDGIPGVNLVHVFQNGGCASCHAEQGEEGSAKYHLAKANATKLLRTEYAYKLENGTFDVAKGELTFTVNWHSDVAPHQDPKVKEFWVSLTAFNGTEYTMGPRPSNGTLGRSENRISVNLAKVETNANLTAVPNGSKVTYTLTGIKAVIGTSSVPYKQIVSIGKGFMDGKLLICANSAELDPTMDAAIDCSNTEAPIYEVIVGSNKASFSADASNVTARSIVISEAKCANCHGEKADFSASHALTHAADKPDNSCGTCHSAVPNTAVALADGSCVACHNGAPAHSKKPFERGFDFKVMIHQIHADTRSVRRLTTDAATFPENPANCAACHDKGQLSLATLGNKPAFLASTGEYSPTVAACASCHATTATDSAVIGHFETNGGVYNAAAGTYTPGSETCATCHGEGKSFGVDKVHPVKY", "test": "PD10 gel-filtration co-elution, flavin fluorescence ([…] nm)", "details": "anaerobic, 1 mM reduced glutathione (disulfide reduced), 10 uM FMN, 20 mM HEPES pH 7.6, room temperature"}}}
{"compound": "Cc1cc2nc3c(=O)[nH]c(=O)nc-3n(C[C@H](O)[C@H](O)[C@H](O)CO)c2cc1C", "note": "[riboflavin]", "values": [{"measurement": "PD10 gel-filtration co-elution, spectroscopy", "setting": "MtrC [1]", "result": "MtrC was also capable of tightly binding a single molecule of riboflavin"}]}
{"compound": "Cc1cc2nc3c(=O)[nH]c(=O)nc-3n(C[C@H](O)[C@H](O)[C@H](O)COP(=O)(O)O)c2cc1C", "note": "[FMN]", "values": [{"measurement": "PD10 gel-filtration co-elution, flavin fluorescence and absorbance", "setting": "OmcA", "result": "Co-elution of FMN and OmcA was observed in the presence, but not the absence, of glutathione"}, {"measurement": "PD10 gel-filtration co-elution, flavin fluorescence (525 nm)", "setting": "MtrF", "result": "OMMC-FMN interactions were also observed after incubation of MtrF or UndA with FMN"}, {"measurement": "PD10 gel-filtration co-elution, flavin fluorescence and absorbance; fluorescence", "setting": "MtrC [2]", "result": "FMN associated specifically with MtrC in the presence of glutathione"}, {"measurement": "PD10 gel-filtration co-elution, flavin fluorescence (525 nm)", "setting": "UndA", "result": "OMMC-FMN interactions were also observed after incubation of MtrF or UndA with FMN"}]}
